Structures can show the parent of a compound that is named as a salt.
system: patient's personalized Drosophila model 006.1; assay: Trametinib combination drug screen (Table 4B, experimental pupae numbers); format: in vivo; conditions: drug screened in combination with trametinib
Experimental: After food was solidified, a mixture of experimental and control embryos (at a 1:2 ratio based on expected Mendelian ratios) were aliquoted into each drug/food tube (15 μl/tube). […] Embryos for drug screening were generated from the following cross in cages: w/Y; UAS-006.1; UAS ago^RNAi UAS-apc^RNAi/Stub-gal80-T Xw UAS-dicer2; +; byn-gal4 UAS-GFP tub-gal80^ts/TM6, Hu, Tb. Embryos were obtained from each cage for 4-5 consecutive days by providing daily a fresh apple juice plate with yeast paste. Egg lays were performed at 22° C. to minimize transgene expression during embryogenesis to prevent embryonic defects or lethality that could not potentially be rescued by drug feeding. After embryos were aliquoted, drug tubes were transferred to 25° C. to induce transgene expression. After 2 weeks, the number of surviving experimental pupae (EP) were counted in each tube.
DMSO and Trametinib alone served as controls. […] Statistical analysis was performed as described above.

Row | Compound | EP (raw experimental pupae numbers), replicate 1 | EP (raw experimental pupae numbers), replicate 2 | EP (raw experimental pupae numbers), replicate 3 | EP (raw experimental pupae numbers), replicate 4 | EP (raw experimental pupae numbers), replicate 5 | EP (raw experimental pupae numbers), replicate 6 | EP (raw experimental pupae numbers), replicate 7 | EP (raw experimental pupae numbers), replicate 8
1 | CN[C@@H]1[C@@H](O)[C@@H](O[C@@H]2[C@@H](O)[C@H](O[C@H]3OC(CN)=CC[C@H]3N)[C@@H](N)C[C@H]2N)OC[C@]1(C)O [sisomicin] | 1 | 1 | 1 | 1 | 2 | 1 | 0 | 0
2 | O=c1ccc2ccc(OCCCCN3CCN(c4cccc5sccc45)CC3)cc2[nH]1 [brexpiprazole] | 0 | 0 | 1 | 1 | 2 | 0 | 3 | 1
3 | NC(N)=Nc1nc(CSCCC(N)=NS(N)(=O)=O)cs1 [famotidine] | 0 | 0 | 0 | 0 | 1 | 2 | 0 | 2
4 | CCOc1cc([C@@H](CS(C)(=O)=O)N2C(=O)c3cccc(NC(C)=O)c3C2=O)ccc1OC [apremilast] | 0 | 0 | 2 | 0 | 3 | 0 | 0 | 0
5 | CC(=O)O[C@]1(C(C)=O)CC[C@H]2[C@@H]3C=C(C)C4=CC(=O)CC[C@]4(C)[C@H]3CC[C@@]21C [megestrol acetate] | 0 | 1 | 1 | 0 | 1 | 2 | 1 | 2
6 | Cc1ccc(C)c(OCCCC(C)(C)C(=O)O)c1 [gemfibrozil] | 0 | 1 | 0 | 0 | 3 | 0 | 0 | 0
7 | C[C@@H](c1ncncc1F)[C@](O)(Cn1cncn1)c1ccc(F)cc1F [Voriconazole] | 0 | 0 | 0 | 1 | 2 | 1 | 0 | 1
8 | CCCCCCCCCCCCCCCC[N+](C)(C)CCN(Cc1ccc(OC)cc1)c1ncccn1 [thonzonium bromide] | 0 | 0 | 1 | 0 | 2 | 1 | 1 | 3
9 | C=CC(=O)Nc1cc(Nc2nccc(-c3cn(C)c4ccccc34)n2)c(OC)cc1N(C)CCN(C)C [osimertinib] | 0 | 0 | 0 | 0 | 0 | 0 | 3 | 1
10 | CN1CCC(=C2c3ccccc3C=Cc3ccccc32)CC1 [cyproheptadine HCl] | 0 | 0 | 0 | 0 | 3 | 0 | 1 | 3
11 | Cc1cnc(C(=O)O)c[n+]1[O-] [acipimox] | 0 | 1 | 0 | 1 | 1 | 1 | 0 | 4
12 | C[C@@H]1CCN(C(=O)CC#N)C[C@@H]1N(C)c1ncnc2[nH]ccc12 [tofacitinib] | 1 | 0 | 1 | 0 | 2 | 1 | 0 | 0
13 | CN(C)C(=N)N=C(N)N [metformin HCl] | 0 | 0 | 0 | 1 | 1 | 0 | 2 | 2
14 | CCOc1ccc(Cc2cc([C@@H]3O[C@H](CO)[C@@H](O)[C@H](O)[C@H]3O)ccc2Cl)cc1 [dapagliflozin] | 0 | 1 | 1 | 1 | 3 | 5 | 2 | 0
15 | CCC(=O)O[C@]1(C(=O)SCF)[C@H](C)C[C@H]2[C@@H]3C[C@H](F)C4=CC(=O)C=C[C@]4(C)[C@@]3(F)[C@@H](O)C[C@@]21C [Fluticasone propionate] | 0 | 0 | 1 | 0 | 2 | 0 | 0 | 1

same assay, conditions: drug screened in combination with trametinib; mean of 8 replicates

Row | Compound | EP mean
16 | CN[C@@H]1[C@@H](O)[C@@H](O[C@@H]2[C@@H](O)[C@H](O[C@H]3OC(CN)=CC[C@H]3N)[C@@H](N)C[C@H]2N)OC[C@]1(C)O [sisomicin] | 0.875
17 | O=c1ccc2ccc(OCCCCN3CCN(c4cccc5sccc45)CC3)cc2[nH]1 [brexpiprazole] | 1
18 | CCOc1cc([C@@H](CS(C)(=O)=O)N2C(=O)c3cccc(NC(C)=O)c3C2=O)ccc1OC [apremilast] | 0.625
19 | Cc1ccc(C)c(OCCCC(C)(C)C(=O)O)c1 [gemfibrozil] | 0.5
20 | C[C@@H](c1ncncc1F)[C@](O)(Cn1cncn1)c1ccc(F)cc1F [Voriconazole] | 0.625
21 | CCCCCCCCCCCCCCCC[N+](C)(C)CCN(Cc1ccc(OC)cc1)c1ncccn1 [thonzonium bromide] | 1
22 | C=CC(=O)Nc1cc(Nc2nccc(-c3cn(C)c4ccccc34)n2)c(OC)cc1N(C)CCN(C)C [osimertinib] | 0.5
23 | CN1CCC(=C2c3ccccc3C=Cc3ccccc32)CC1 [cyproheptadine HCl] | 0.875
24 | Cc1cnc(C(=O)O)c[n+]1[O-] [acipimox] | 1
25 | C[C@@H]1CCN(C(=O)CC#N)C[C@@H]1N(C)c1ncnc2[nH]ccc12 [tofacitinib] | 0.625
26 | CCOc1ccc(Cc2cc([C@@H]3O[C@H](CO)[C@@H](O)[C@H](O)[C@H]3O)ccc2Cl)cc1 [dapagliflozin] | 1.625
27 | CCC(=O)O[C@]1(C(=O)SCF)[C@H](C)C[C@H]2[C@@H]3C[C@H](F)C4=CC(=O)C=C[C@]4(C)[C@@]3(F)[C@@H](O)C[C@@]21C [Fluticasone propionate] | 0.5

same assay, conditions: in vivo

Row | Compound | EP mean
28 | NC(N)=Nc1nc(CSCCC(N)=NS(N)(=O)=O)cs1 [famotidine] | 0.625
29 | CC(=O)O[C@]1(C(C)=O)CC[C@H]2[C@@H]3C=C(C)C4=CC(=O)CC[C@]4(C)[C@H]3CC[C@@]21C [megestrol acetate] | 1
30 | CN(C)C(=N)N=C(N)N [metformin HCl] | 0.75

— patent US20220160714A1, “METHODS FOR TREATING COLORECTAL CANCER” (ICAHN SCHOOL OF MEDICINE AT MOUNT SINAI, priority 2019, published 2022)
